This assay concerns P388 leukemia ip, CD2F1 mice, survival T/C. Briefly: NCI In Vivo Anticancer Drug Screen. Data for tumor model P388 Leukemia (intraperitoneal) in CD2F1 (CDF1) mice. The conditions noted are these: endpoint: median survival time, higher = longer survival. An outline of the steps: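 Mice carrying the transplanted tumor received test compound or vehicle. Survival was recorded in each group, and the value is the treated-group measurement divided by that of the vehicle-treated control group.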

Where [1] appears, read: dose: 25.0 mg/kg/injection, schedule: Q01DX005 (ip), vehicle: Klucel (hydroxypropylcellulose) (HPC).
[2] abbreviates: dose: 50.0 mg/kg/injection, schedule: Q01DX005 (ip), vehicle: Klucel (hydroxypropylcellulose) (HPC).
Setting [3] is: dose: 100.0 mg/kg/injection, schedule: Q01DX005 (ip), vehicle: Klucel (hydroxypropylcellulose) (HPC).
Setting [4] is: dose: 200.0 mg/kg/injection, schedule: Q01DX005 (ip), vehicle: Klucel (hydroxypropylcellulose) (HPC).
The mark [5] stands for this setting: dose: 50.0 mg/kg/injection, schedule: Q01DX009 (ip), vehicle: saline.
[6] abbreviates: dose: 100.0 mg/kg/injection, schedule: Q01DX009 (ip), vehicle: saline.
The mark [7] stands for this setting: dose: 12.5 mg/kg/injection, schedule: Q01DX005 (ip), vehicle: Klucel (hydroxypropylcellulose) (HPC).
Where [8] appears, read: dose: 100.0 mg/kg/injection, schedule: Q01DX001 (ip), vehicle: saline.
The mark [9] stands for this setting: dose: 200.0 mg/kg/injection, schedule: Q01DX001 (ip), vehicle: saline.
The mark [10] stands for this setting: dose: 200.0 mg/kg/injection, schedule: Q01DX009 (ip), vehicle: saline with Tween-80.
[11] abbreviates: dose: 50.0 mg/kg/injection, schedule: Q01DX005 (ip), vehicle: saline with Tween-80.
The mark [12] stands for this setting: dose: 100.0 mg/kg/injection, schedule: Q01DX005 (ip), vehicle: saline with Tween-80.
Setting [13] is: dose: 200.0 mg/kg/injection, schedule: Q01DX005 (ip), vehicle: saline with Tween-80.

Where “and” joins values, the source holds several entries; their conditions need not be identical. Equal entries are not always repeated. Inconclusive results and toxic doses are left out.

In the case of `CCCCN(CCCC)CCCNC(c1ccc(N(C)C)cc1)c1ccc(N(C)C)cc1`, the T/C is, setting by setting: under setting [1], 98 % of control; under setting [2], 104 % of control; under setting [3], 98 % of control; under setting [4], 102 % of control.

For the compound `O=C1Nc2cnc(Cl)nc2Nc2ccc(Cl)cc21`, the T/C reads like this: under setting [2], 92 % of control; under setting [3], 99 % of control; under setting [4], 89 % of control.

On to `CP1(=O)CCc2c1ccc1ccccc21` (stereo not drawn), for which the T/C reads like this: (dose: 100.0 mg/kg/injection, schedule: Q04DX002 (ip), vehicle: saline) 107 % of control; (dose: 200.0 mg/kg/injection, schedule: Q04DX002 (ip), vehicle: saline) 101 % of control.

For `C/C(=C/OS(=O)(=O)C(F)(F)F)c1ccccc1`, the T/C runs as follows: (dose: 50.0 mg/kg/injection, schedule: Q01DX009 (ip), vehicle: olive oil, sesame oil, peanut oil) 105 % of control; (dose: 100.0 mg/kg/injection, schedule: Q01DX009 (ip), vehicle: olive oil, sesame oil, peanut oil) 116 % of control; (dose: 200.0 mg/kg/injection, schedule: Q01DX009 (ip), vehicle: olive oil, sesame oil, peanut oil) 87 % of control.

On to `CC[CH](C)[Sn](=[O])[CH](C)CC` (stereo not drawn), for which the T/C was 97 % of control (dose: 0.78 mg/kg/injection, schedule: Q01DX009 (ip), vehicle: saline); 105 % of control (dose: 1.56 mg/kg/injection, schedule: Q01DX009 (ip), vehicle: saline); 113 % of control (dose: 3.12 mg/kg/injection, schedule: Q01DX009 (ip), vehicle: saline).

For `CC(C)CC#N`, the T/C is 90 % of control (dose: 25.0 mg/kg/injection, schedule: Q01DX009 (ip), vehicle: saline); 100 % of control under setting [5]; 100 % of control under setting [6].

Turning to `CC1(C)CC2([Si](C)(C)C)C(=O)NC(=O)NC12` (stereo not drawn), the T/C is 105 % of control under setting [7], 99 % of control under setting [1], 99 % of control under setting [2] and 97 % of control under setting [3].

Turning to `N=C1SC23CCCN2C(=O)C2(CCCN2C3=O)S1`, the T/C by setting is: under setting [8], 96 % of control; under setting [9], 92 % of control; (dose: 400.0 mg/kg/injection, schedule: Q01DX001 (ip), vehicle: saline) 92 % of control.

For `CC[C@@H]1C[C@@H]2CN3CCc4c([nH]c5ccc(OC)cc45)C(COC(=O)c4ccc(OC)c(OC)c4)(C2)C13`, the T/C reads like this: (dose: 0.5 mg/kg/injection, schedule: Q01DX009 (ip), vehicle: Klucel (hydroxypropylcellulose) (HPC)) 102 % of control; (dose: 1.0 mg/kg/injection, schedule: Q01DX009 (ip), vehicle: Klucel (hydroxypropylcellulose) (HPC)) 104 % of control; (dose: 2.0 mg/kg/injection, schedule: Q01DX009 (ip), vehicle: Klucel (hydroxypropylcellulose) (HPC)) 108 % of control; (dose: 4.0 mg/kg/injection, schedule: Q01DX009 (ip), vehicle: Klucel (hydroxypropylcellulose) (HPC)) 102 % of control.

In the case of `Cc1ccccc1-c1nc2c(N)nc(N)nc2nc1N`, the T/C is 109 % of control (dose: 100.0 mg/kg/injection, schedule: Q04DX003 (ip), vehicle: saline with Tween-80); 172 % of control under setting [10]; 109 % of control (dose: 200.0 mg/kg/injection, schedule: Q04DX003 (ip), vehicle: saline with Tween-80); 113 % of control (dose: 264.0 mg/kg/injection, schedule: Q04DX003 (ip), vehicle: saline with Tween-80); 109 % of control (dose: 300.0 mg/kg/injection, schedule: Q01DX009 (ip), vehicle: saline with Tween-80); 113 % of control (dose: 400.0 mg/kg/injection, schedule: Q04DX003 (ip), vehicle: saline with Tween-80).

Regarding `CCOc1c(C)cc(C(C)c2cc3c(cc2OC)OCO3)cc1C` (stereo not drawn), the T/C reads like this: under setting [11], 97 % of control; under setting [12], 99 % of control; under setting [13], 107 % of control.

As to `O=C1CCOCCCOCCC(=O)OCCCO1`, the T/C is 104 % of control under setting [2], 101 % of control under setting [3] and 101 % of control under setting [4].

Turning to `O=C1C=C(Nc2ccccc2N=C2C(N3C4=CCc5ccccc5C4=Nc4ccccc43)=CC(=O)c3ccccc32)C(=O)c2ccccc21`, the T/C reads like this: under setting [5], 89 % of control; under setting [6], 91 % of control; (dose: 200.0 mg/kg/injection, schedule: Q01DX009 (ip), vehicle: saline) 100 % of control.

Consider `O=C1OC(c2ccccc2)=N/C1=C\c1ccccc1`, for which the T/C was 95 % of control (dose: 25.0 mg/kg/injection, schedule: Q01DX009 (ip), vehicle: saline with Tween-80); 100 % of control (dose: 50.0 mg/kg/injection, schedule: Q01DX009 (ip), vehicle: saline with Tween-80); 100 % of control (dose: 100.0 mg/kg/injection, schedule: Q01DX009 (ip), vehicle: saline with Tween-80); 95 % of control under setting [10].

Regarding `NS(=O)(=O)c1ccc(N=Cc2c3ccccc3nc3cc(Cl)ccc23)cc1`, the T/C runs as follows: under setting [11], 91 % of control; under setting [12], 88 % of control; under setting [13], 88 % of control.

In the case of `CCCCN(CCCC)C(=N)/C=C/c1ccccc1`, the T/C (dose: 6.25 mg/kg/injection, schedule: Q01DX005 (ip), vehicle: Klucel (hydroxypropylcellulose) (HPC)) was 97 % of control and the T/C under setting [7] was 103 % of control.

Take `CN(C)P(=O)(OCC12C=C(OP(=O)(N(C)C)N(C)C)CC1(COP(=O)(N(C)C)N(C)C)C1CCC2C1)N(C)C` (stereo not drawn): the T/C reads like this: (dose: 60.0 mg/kg/injection, schedule: Q01DX005 (ip), vehicle: saline) 101 % of control; (dose: 120.0 mg/kg/injection, schedule: Q01DX005 (ip), vehicle: saline) 98 % of control; (dose: 240.0 mg/kg/injection, schedule: Q01DX005 (ip), vehicle: saline) 102 % of control.

For the compound `COC(=O)C1=C(C(=O)OC)P2(C)(C)SC(=S)N2C1(c1ccccc1)c1ccccc1`, the T/C is 102 % of control under setting [2] and 91 % of control under setting [3].

As for `CCCCCCCCCCCCCCOCCS(=O)(=O)O`, the T/C by setting is: (dose: 60.0 mg/kg/injection, schedule: Q01DX005 (ip), vehicle: saline with Tween-80) 86 % of control; (dose: 240.0 mg/kg/injection, schedule: Q01DX005 (ip), vehicle: saline with Tween-80) 100 % of control.

For the compound `CCCn1cnc(C(=O)OC)c1O` (tested in a mixture with another compound), the T/C by setting is: (dose: 100.0 mg/kg/injection, schedule: Q04DX002 (ip), vehicle: water) 101 % of control; (dose: 200.0 mg/kg/injection, schedule: Q04DX002 (ip), vehicle: water) 104 % of control; (dose: 400.0 mg/kg/injection, schedule: Q04DX002 (ip), vehicle: water) 101 % of control.

Take `Cc1cc(N(CCO)CCO)c(OCc2ccccc2)c(N(CCO)CCO)c1`: the T/C (dose: 60.0 mg/kg/injection, schedule: Q01DX005 (ip), vehicle: Klucel (hydroxypropylcellulose) (HPC)) is 99 % of control; the T/C (dose: 120.0 mg/kg/injection, schedule: Q01DX005 (ip), vehicle: Klucel (hydroxypropylcellulose) (HPC)) is 100 % of control; the T/C (dose: 240.0 mg/kg/injection, schedule: Q01DX005 (ip), vehicle: Klucel (hydroxypropylcellulose) (HPC)) was 98 % of control.

For `COc1ccc(S(=O)(=O)NC(=O)c2ccccc2)cc1`, the T/C reads like this: (dose: 50.0 mg/kg/injection, schedule: Q04DX003 (ip), vehicle: saline) 103 % of control; (dose: 100.0 mg/kg/injection, schedule: Q04DX003 (ip), vehicle: saline) 106 % of control and 97 % of control; (dose: 200.0 mg/kg/injection, schedule: Q04DX003 (ip), vehicle: saline) 98 % of control and 104 % of control; (dose: 400.0 mg/kg/injection, schedule: Q04DX003 (ip), vehicle: saline) 101 % of control.

As for `CC(=O)OC1=CC(OC(C)=O)C2C(=O)C3=C(C(=O)c4ccccc4C3=O)C(=O)C2C1` (stereo not drawn), the T/C runs as follows: (dose: 100.0 mg/kg/injection, schedule: Q01DX001 (ip), vehicle: Klucel (hydroxypropylcellulose) (HPC)) 105 % of control; (dose: 200.0 mg/kg/injection, schedule: Q01DX001 (ip), vehicle: Klucel (hydroxypropylcellulose) (HPC)) 102 % of control; (dose: 400.0 mg/kg/injection, schedule: Q01DX001 (ip), vehicle: Klucel (hydroxypropylcellulose) (HPC)) 93 % of control.

With `Cn1c(=O)c2c(nc(CF)n2C)n(C)c1=O`, the T/C under setting [8] is 92 % of control and the T/C under setting [9] is 96 % of control.

Consider `c1cnc2c(c1)Oc1nc3ccccc3nc1S2`, for which the T/C under setting [11] was 99 % of control, the T/C under setting [12] was 98 % of control and the T/C under setting [13] was 96 % of control.

These data come from PubChem BioAssay AID330 (DTP/NCI, 2004).
